Test [1] concerns monoclonal antibody MV-001. The experiment in a line: In vitro inhibition assay (ELISA), MV-001 binding to original epitope. Details: species or system C57/Bl6 mice. The note with it: OD at 10 μg peptide compared to original peptide. As for the experimental part: (§1) 2. In vitro inhibition assay (ELISA)
(§2) Different amounts of peptides (concentrations ranging from 10 μg to 0.08 μg; serial dilutions), derived from Phage Display were incubated with the monoclonal antibody that was used for the screening procedure. Peptides diminishing subsequent binding of the antibody to the original epitope coated on ELISA plates were considered as inhibiting in this assay.
(In general: ELISA stands for enzyme-linked immunosorbent assay.)

Test [2] has as its system full length and/or truncated and modified forms of Aβ. The experiment in a line: In vivo characterisation of mimotopes: detection of Aβ/truncated/modified forms. Details: species or system C57/bl6 mice; key: +: All peptides listed in Table 4 mount specific immune reactions against full length and/or truncated and modified forms of Aβ or fragments thereof. The note with it: MV-001 derived mimotopes; mimotope vaccination. As for the experimental part: Inhibiting as well as non-inhibiting peptides were coupled to KLH and injected into mice (wildtype C57/Bl6 mice; subcutaneous injection into the flank) together with an appropriate adjuvant (aluminium hydroxide). Animals were vaccinated 3-6 times in biweekly intervals and sera were taken biweekly as well. Titers to injected peptides, as well as to an irrelevant peptide were determined with every serum. Furthermore, titers against the recombinant human Aβ protein, and against original peptides were determined respectively. In general sera were analysed by reaction against peptides coupled to Bovine Serum Albumin (BSA) and recombinant full length proteins which were immobilised on ELISA plates. Titers were determined using anti mouse IgG specific antibodies. For detailed results see FIGS. 6, 7 and 8 respectively.
Female C57/bl6 mice, 5-6 mice per group, were subcutaneously immunized with 30 μg peptide coupled to KLH. Control groups were administered original epitope-KLH conjugates respectively. As adjuvant alum was used (always 1 mg per mouse). […] The in vitro ELISA assay to determine the antibody titer was performed with sera of single mice after each vaccination in a two week interval (see FIGS. 6 and 7 respectively). The wells of the ELISA plate were coated with mimotope-BSA conjugate and an irrelevant peptide-BSA conjugate (negative control). The positive control was performed by reaction of the parental antibody with the respective mimotope-BSA conjugate. The detection was performed with anti-mouse IgG. Additionally, recombinant proteins were immobilised on ELISA plates and sera reacted accordingly. FIGS. 6 to 8 show representative examples for assays used to characterise mimotopes in vivo.

Test [3] deals with monoclonal antibody MV-001. Put plainly: In vitro binding assay (ELISA), parental antibody MV-001. The note with it: peptide-BSA on ELISA plate; OD halfmax, dilution factor 1:X of parental AB MV-001. Details: species or system C57/Bl6 mice. The method, then:
1. In vitro binding assay (ELISA)
Peptides derived from Phage Display as well as variants thereof were coupled to BSA and bound to ELISA plates (1 μM; as indicated in the respective figures) and subsequently incubated with the monoclonal antibody that was used for the screening procedure to analyse binding capacity of identified peptides.

In test [4] the test system is monoclonal antibody MV-004. The experiment in a line: In vitro inhibition assay (ELISA), MV-004 binding to original epitope. The note with it: OD at 10 μg peptide compared to original peptide. Details: species or system BalbC mice. As for the experimental part: as §1, §2
Another test has as its system Tg2576 AD mouse model. The experiment in a line: Area occupied by amyloid plaques in Tg2576 mice after mimotope vaccination. The note with it: Tg2576, 6 s.c. injections at monthly intervals, peptide-KLH conjugate with ALUM; for average area occupied by amyloid plaques: mAb 3A5 staining, control group 0.35%; for reduction of area occupied by amyloid plaques following mimotope treatment: versus control group. The format is in vivo.

Test [5] has as its target monoclonal antibody MV-004. Put plainly: ELISA, peptide-BSA coated, MV-004. The note with it: for Binding Capacity: scale: code.
Test [6] has as its target monoclonal antibody MV-004. The experiment in a line: inhibition ELISA; competitor: coated original epitope p4372. The note with it: for Inhibition Capacity: scale: code.
The target in test [7] is monoclonal antibody MV-003. Put plainly: ELISA, peptide-BSA coated, MV-003. The note with it: for Binding Capacity: scale: code.
The target of test [8] is monoclonal antibody MV-003. Put plainly: inhibition ELISA; competitor: coated original epitope p4373.

The values that follow come from US8613931B2, “Compounds for treating beta-amyloidoses” (Affiris AG, priority 2008, dated 2013).

Regarding SQFRHYC [p4385], the “Inhibition Capacity” value in test [1] was 1 (Weaker than original epitope (OD of 10 μg peptide below 3 times of original peptide)). In addition, the “Detection of Aβ/truncated/modified forms” value in test [2] was “+”.

QSEFKHWC [p4738]: the “Binding Capacity” value in [3] is given as 3 (strong binding :>20000). Besides, in test [1], the “Inhibition Capacity” value is reported as 1 (Weaker than original epitope (OD of 10 μg peptide below 3 times of original peptide)). In addition, in test [2], the “Detection of Aβ/truncated/modified forms” value is recorded as “+”.

As for THTDFRHC [p4725], the “Binding Capacity” value in test [3] is reported as 3 (strong binding :>20000). The “Inhibition Capacity” value in test [1] is listed as 1 (Weaker than original epitope (OD of 10 μg peptide below 3 times of original peptide)). Also, the “Detection of Aβ/truncated/modified forms” value in test [2] was “+”.

Turning to DEHPFRHC [p4730], the “Binding Capacity” value in test [3] was 3 (strong binding :>20000). In addition, the “Inhibition Capacity” value in test [1] is recorded as 1 (Weaker than original epitope (OD of 10 μg peptide below 3 times of original peptide)). Further, in [2], the “Detection of Aβ/truncated/modified forms” value is on record as “+”.

For EVWHRHC [p4789], the “Inhibition Capacity” value in test [4] is recorded as 1 (Weaker than original epitope (OD of 10 μg peptide below 5 times of original peptide)).

In the case of ADHDFRHC [p4740], in test [3], the “Binding Capacity” value is reported as 3 (strong binding :>20000). Further, the “Inhibition Capacity” value in test [1] is given as 1 (Weaker than original epitope (OD of 10 μg peptide below 3 times of original peptide)). Also, the “Detection of Aβ/truncated/modified forms” value in test [2] was “+”.

For the molecule ELWHRAFC [p4665], in test [4], the “Inhibition Capacity” value is listed as 2 (strong inhibition (as original epitope; OD of 10 μg peptide below 2 times of original peptide)).

On to EVWHRHQC [p4417], for which the “Inhibition Capacity” value in test [4] is listed as 1 (Weaker than original epitope (OD of 10 μg peptide below 5 times of original peptide)).

Turning to ELWHRYPC [p4420], the “Inhibition Capacity” value in test [4] is recorded as 1 (Weaker than original epitope (OD of 10 μg peptide below 5 times of original peptide)).

With TEFRHKAC [p4753], the “Binding Capacity” value in test [3] is on record as 3 (strong binding :>20000). In test [1], the “Inhibition Capacity” value is reported as 2 (strong inhibition (as original epitope; OD of 10 μg peptide below 2 times of original peptide)). Also, the “Detection of Aβ/truncated/modified forms” value in test [2] was “+”.

Consider EVWHRGC [p4788], for which, in test [4], the “Inhibition Capacity” value is given as 1 (Weaker than original epitope (OD of 10 μg peptide below 5 times of original peptide)).

Regarding ELWHRAC [p4786], the “Inhibition Capacity” value in test [4] is 1 (Weaker than original epitope (OD of 10 μg peptide below 5 times of original peptide)).

In the case of YEFRHAQC [p4748], the “Binding Capacity” value in test [3] is reported as 3 (strong binding :>20000). Moreover, in test [2], the “Detection of Aβ/truncated/modified forms” value is given as “+”.

Turning to ILFRHGC [p4390], the “Binding Capacity” value in test [3] is on record as 3 (strong binding :>20000). For the same molecule, the “Inhibition Capacity” value in test [1] is recorded as 1 (Weaker than original epitope (OD of 10 μg peptide below 3 times of original peptide)). Further, in the test with Tg2576 AD mouse model, the “average area occupied by amyloid plaques” value is recorded as 0.14% and the “reduction of area occupied by amyloid plaques following mimotope treatment” value (“reduction of area occupied” for short) worked out at 60%. Also, the “Detection of Aβ/truncated/modified forms” value in test [2] is “+”.

Consider SPNQFRHC [p4707], for which the “Binding Capacity” value in test [3] is reported as 3 (strong binding :>20000). In addition, the “Inhibition Capacity” value in [1] is on record as 1 (Weaker than original epitope (OD of 10 μg peptide below 3 times of original peptide)). Besides, in [2], the “Detection of Aβ/truncated/modified forms” value is on record as “+”.

On to TLHEFRHC [p4715], for which the “Binding Capacity” value in test [3] is 3 (strong binding :>20000). Also, the “Inhibition Capacity” value in [1] was 2 (strong inhibition (as original epitope; OD of 10 μg peptide below 2 times of original peptide)). In the test with Tg2576 AD mouse model, the “average area occupied by amyloid plaques” value was 0.22% and the “reduction of area occupied” value came out at 36%. Besides, the “Detection of Aβ/truncated/modified forms” value in test [2] is recorded as “+”.

In the case of ELFKHHLC [p4714], the “Binding Capacity” value in test [3] is recorded as 3 (strong binding :>20000). Moreover, the “Detection of Aβ/truncated/modified forms” value in test [2] is reported as “+”.

As to ERWHEKC [p4790], the “Inhibition Capacity” value in [4] is recorded as 2 (strong inhibition (as original epitope; OD of 10 μg peptide below 2 times of original peptide)).

Regarding LMFRHNC [p4386], in [3], the “Binding Capacity” value is reported as 3 (strong binding :>20000). Also, in [1], the “Inhibition Capacity” value is given as 1 (Weaker than original epitope (OD of 10 μg peptide below 3 times of original peptide)). Also, the “Detection of Aβ/truncated/modified forms” value in test [2] was “+”.

Regarding SEFKHGC [p4381], the “Binding Capacity” value in test [3] is 3 (strong binding :>20000). For the same molecule, in [1], the “Inhibition Capacity” value was 1 (Weaker than original epitope (OD of 10 μg peptide below 3 times of original peptide)). Moreover, in the test on Tg2576 AD mouse model, the “average area occupied by amyloid plaques” value worked out at 0.11% and the “reduction of area occupied” value is given as 67%. Besides, the “Detection of Aβ/truncated/modified forms” value in test [2] was “+”.

Consider EVWHRLQC [p4419], for which the “Inhibition Capacity” value in test [4] is on record as 2 (strong inhibition (as original epitope; OD of 10 μg peptide below 2 times of original peptide)).

For the molecule ERWHEKHC [p4418], the “Inhibition Capacity” value in test [4] is reported as 2 (strong inhibition (as original epitope; OD of 10 μg peptide below 2 times of original peptide)).

Turning to TSVFRHC [p4383], in [3], the “Binding Capacity” value was 3 (strong binding :>20000). Moreover, the “Inhibition Capacity” value in [1] is listed as 1 (Weaker than original epitope (OD of 10 μg peptide below 3 times of original peptide)). Also, the “Detection of Aβ/truncated/modified forms” value in test [2] is recorded as “+”.

ELWHRAC [p4786]: the Binding Capacity (code (weak binding, OD halfmax 1:<24000)) in [5] turned out to be 1. The Inhibition Capacity (code (weaker than original epitope)) in [6] was 1.

In the case of IRWDTSLC [p4728], the Binding Capacity in test [7] was determined as 3. For the same molecule, the Inhibition Capacity in test [8] (scale: code) was found to be 2.

In [5], EVWHRHQC [p4417] returned a Binding Capacity of 2. For the same molecule, the Inhibition Capacity (code (weaker than original epitope)) in test [6] was found to be 1.

As to ERWHEKHC [p4418], the Binding Capacity in [5] worked out at 3. The Inhibition Capacity in [6] came out at 2.

Consider ERWHEKC [p4790], for which the Binding Capacity (code (weak binding, OD halfmax 1:<24000)) in [5] came to 1. Moreover, the Inhibition Capacity in [6] worked out at 2.

For EVWHRLQC [p4419], the Binding Capacity in test [5] was 3. For the same molecule, the Inhibition Capacity in test [6] was found to be 2.

On to VRWDVYPC [p4396], for which the Binding Capacity (code (weak binding, OD halfmax 1:<16000)) in test [7] came out at 1.

As to IRYDAPLC [p4397], in test [7], the Binding Capacity (code (weak binding, OD halfmax 1:<16000)) was 1. In test [8], this molecule had an Inhibition Capacity (code (weaker than original epitope)) of 1.

Regarding IRWDTPC [p4395], in [7], the Binding Capacity was determined as 2. Moreover, the Inhibition Capacity (code (weaker than original epitope)) in [8] was 1.

In test [5], EVWHRGC [p4788] gave a Binding Capacity (code (weak binding, OD halfmax 1:<24000)) of 1. This molecule showed an Inhibition Capacity (code (weaker than original epitope)) in test [6] of 1.

In [5], ELWHRAFC [p4665] gave a Binding Capacity of 2. The same molecule returned an Inhibition Capacity in test [6] of 2.

Turning to IRYDMAGC [p4399], in test [7], the Binding Capacity (code (weak binding, OD halfmax 1:<16000)) was found to be 1.

On to EVWHRHC [p4789], for which the Binding Capacity (code (weak binding, OD halfmax 1:<24000)) in test [5] was found to be 1. In addition, in test [6], the Inhibition Capacity (code (weaker than original epitope)) is 1.

ELWHRYPC [p4420] gave a Binding Capacity in test [5] of 2. In addition, the Inhibition Capacity (code (weaker than original epitope)) in [6] stood at 1.
